Reference: the kinase profiling compilation of Christmann-Franck et al. (2016)

How the values were obtained:
Test in all cases: KINOMEscan competition binding
Settings in all cases: compound 10.0 µM
[1] = target: AKT3 (human) (UniProt Q9Y243)
[2] = target: AURKA (human) (UniProt O14965)
[3] = target: CDKL3 (human) (UniProt Q8IVW4)
[4] = target: CSNK1A1 (human) (UniProt P48729)
[5] = target: DAPK2 (human) (UniProt Q9UIK4)
[6] = target: DDR1 (human) (UniProt Q08345)
[7] = target: EPHA4 (human) (UniProt P54764)
[8] = target: EPHA6 (human) (UniProt Q9UF33)
[9] = target: ERBB3 (human) (UniProt P21860)
[10] = target: ERN1 (human) (UniProt O75460)
[11] = target: GRK7 (human) (UniProt Q8WTQ7)
[12] = target: ICK (human) (UniProt Q9UPZ9)
[13] = target: INSR (human) (UniProt P06213)
[14] = target: MAK (human) (UniProt P20794)
[15] = target: MAP4K2 (human) (UniProt Q12851)
[16] = target: MAPK14 (human) (UniProt Q16539)
[17] = target: MAST1 (human) (UniProt Q9Y2H9)
[18] = target: MYO3B (human) (UniProt Q8WXR4)
[19] = target: NEK1 (human) (UniProt Q96PY6)
[20] = target: NEK2 (human) (UniProt P51955)
[21] = target: NUAK2 (human) (UniProt Q9H093)
[22] = system: PIK3CA (human), P42336 [H1047L]
[23] = target: PIK3CD (human) (UniProt O00329)
[24] = target: PIM2 (human) (UniProt Q9P1W9)
[25] = target: PKN3 (M.tuberculosis) (UniProt Q6P5Z2)
[26] = target: PRKX (human) (UniProt P51817)
[27] = target: PRPF4B (human) (UniProt Q13523)
[28] = target: RIOK3 (human) (UniProt O14730)
[29] = target: SBK1 (human) (UniProt Q52WX2)
[30] = target: SIK1 (human) (UniProt P57059)
[31] = target: SRPK3 (human) (UniProt Q9UPE1)
[32] = target: STK17B (human) (UniProt O94768)
[33] = target: TAOK3 (human) (UniProt Q9H2K8)
[34] = target: TBK1 (human) (UniProt Q9UHD2)
[35] = target: ZAP70 (human) (UniProt P43403)

Chain of INSR (human) (P06213 whole entry, looked up): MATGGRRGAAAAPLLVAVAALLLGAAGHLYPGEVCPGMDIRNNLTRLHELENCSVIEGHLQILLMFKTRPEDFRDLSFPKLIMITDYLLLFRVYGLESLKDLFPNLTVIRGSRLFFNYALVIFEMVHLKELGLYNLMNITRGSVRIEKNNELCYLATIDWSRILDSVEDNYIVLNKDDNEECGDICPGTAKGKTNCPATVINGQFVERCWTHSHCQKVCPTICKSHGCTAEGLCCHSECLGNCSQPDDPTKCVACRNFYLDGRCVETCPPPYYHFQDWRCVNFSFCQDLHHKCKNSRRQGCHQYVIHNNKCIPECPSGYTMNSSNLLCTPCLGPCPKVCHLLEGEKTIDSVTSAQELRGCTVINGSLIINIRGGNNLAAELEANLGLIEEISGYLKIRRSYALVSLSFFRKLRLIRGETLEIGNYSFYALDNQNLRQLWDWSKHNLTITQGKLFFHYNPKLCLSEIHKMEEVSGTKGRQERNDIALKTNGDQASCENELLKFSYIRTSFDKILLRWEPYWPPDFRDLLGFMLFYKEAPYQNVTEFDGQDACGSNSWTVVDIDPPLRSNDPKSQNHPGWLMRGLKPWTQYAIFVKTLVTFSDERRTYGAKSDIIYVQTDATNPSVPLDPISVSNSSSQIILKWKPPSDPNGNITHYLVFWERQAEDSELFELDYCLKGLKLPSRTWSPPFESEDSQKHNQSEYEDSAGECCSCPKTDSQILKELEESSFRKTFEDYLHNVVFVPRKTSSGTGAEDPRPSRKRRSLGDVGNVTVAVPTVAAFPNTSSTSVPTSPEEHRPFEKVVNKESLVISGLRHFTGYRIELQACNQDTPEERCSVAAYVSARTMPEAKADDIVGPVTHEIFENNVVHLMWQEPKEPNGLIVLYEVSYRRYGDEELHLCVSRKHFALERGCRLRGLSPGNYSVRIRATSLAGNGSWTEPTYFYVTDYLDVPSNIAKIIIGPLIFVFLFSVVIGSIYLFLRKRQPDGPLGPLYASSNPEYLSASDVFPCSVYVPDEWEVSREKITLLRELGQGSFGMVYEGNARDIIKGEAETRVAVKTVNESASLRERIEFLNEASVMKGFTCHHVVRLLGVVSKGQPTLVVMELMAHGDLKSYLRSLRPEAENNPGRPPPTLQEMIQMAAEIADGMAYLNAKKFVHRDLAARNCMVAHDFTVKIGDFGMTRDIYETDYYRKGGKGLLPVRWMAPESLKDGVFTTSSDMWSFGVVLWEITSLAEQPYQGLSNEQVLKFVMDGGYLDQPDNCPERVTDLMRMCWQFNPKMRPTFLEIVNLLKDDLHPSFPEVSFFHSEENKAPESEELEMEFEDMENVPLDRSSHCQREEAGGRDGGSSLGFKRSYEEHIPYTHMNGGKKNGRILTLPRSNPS
Chain of SIK1 (human) (P57059 whole entry, looked up): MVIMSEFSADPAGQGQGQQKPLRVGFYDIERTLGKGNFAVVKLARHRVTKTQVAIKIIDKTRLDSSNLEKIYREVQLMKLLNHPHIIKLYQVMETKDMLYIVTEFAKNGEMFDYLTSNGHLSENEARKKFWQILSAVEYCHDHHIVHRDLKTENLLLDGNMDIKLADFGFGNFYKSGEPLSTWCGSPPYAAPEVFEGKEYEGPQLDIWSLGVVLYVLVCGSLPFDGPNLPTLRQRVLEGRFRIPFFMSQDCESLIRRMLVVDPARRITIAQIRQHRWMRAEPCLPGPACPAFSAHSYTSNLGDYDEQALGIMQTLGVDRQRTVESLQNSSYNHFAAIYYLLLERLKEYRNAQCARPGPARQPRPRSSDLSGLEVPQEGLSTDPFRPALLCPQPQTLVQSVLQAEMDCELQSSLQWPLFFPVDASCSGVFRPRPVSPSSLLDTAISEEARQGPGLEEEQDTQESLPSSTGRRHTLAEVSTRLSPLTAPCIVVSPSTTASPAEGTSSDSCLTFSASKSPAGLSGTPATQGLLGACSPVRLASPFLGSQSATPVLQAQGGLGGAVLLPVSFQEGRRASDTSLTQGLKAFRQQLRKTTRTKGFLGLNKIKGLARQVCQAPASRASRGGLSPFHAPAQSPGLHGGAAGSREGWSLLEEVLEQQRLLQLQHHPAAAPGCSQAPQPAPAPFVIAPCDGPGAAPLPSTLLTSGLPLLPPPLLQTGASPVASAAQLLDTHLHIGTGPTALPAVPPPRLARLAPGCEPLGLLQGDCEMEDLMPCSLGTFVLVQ
Chain of AURKA (human) (O14965 whole entry, looked up): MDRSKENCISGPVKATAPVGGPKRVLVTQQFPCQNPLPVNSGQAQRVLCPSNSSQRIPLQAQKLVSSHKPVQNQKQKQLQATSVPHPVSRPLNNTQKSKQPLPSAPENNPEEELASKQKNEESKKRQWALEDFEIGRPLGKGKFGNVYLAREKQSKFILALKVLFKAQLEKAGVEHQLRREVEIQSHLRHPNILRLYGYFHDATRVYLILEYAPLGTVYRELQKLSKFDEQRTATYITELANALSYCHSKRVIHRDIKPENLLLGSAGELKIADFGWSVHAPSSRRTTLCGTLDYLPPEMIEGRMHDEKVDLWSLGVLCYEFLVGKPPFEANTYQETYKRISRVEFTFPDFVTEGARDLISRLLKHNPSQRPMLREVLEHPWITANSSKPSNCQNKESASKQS
Chain of PIM2 (human) (Q9P1W9 whole entry, looked up): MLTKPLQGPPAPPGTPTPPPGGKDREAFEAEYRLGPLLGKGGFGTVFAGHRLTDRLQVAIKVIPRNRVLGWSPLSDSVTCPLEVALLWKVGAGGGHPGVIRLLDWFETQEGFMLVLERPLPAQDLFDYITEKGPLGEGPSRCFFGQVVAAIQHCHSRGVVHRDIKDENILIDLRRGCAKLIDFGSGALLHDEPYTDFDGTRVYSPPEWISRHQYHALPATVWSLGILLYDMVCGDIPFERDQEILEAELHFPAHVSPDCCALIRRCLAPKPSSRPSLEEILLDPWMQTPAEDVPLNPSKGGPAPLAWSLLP
Chain of MAST1 (human) (Q9Y2H9 whole entry, looked up): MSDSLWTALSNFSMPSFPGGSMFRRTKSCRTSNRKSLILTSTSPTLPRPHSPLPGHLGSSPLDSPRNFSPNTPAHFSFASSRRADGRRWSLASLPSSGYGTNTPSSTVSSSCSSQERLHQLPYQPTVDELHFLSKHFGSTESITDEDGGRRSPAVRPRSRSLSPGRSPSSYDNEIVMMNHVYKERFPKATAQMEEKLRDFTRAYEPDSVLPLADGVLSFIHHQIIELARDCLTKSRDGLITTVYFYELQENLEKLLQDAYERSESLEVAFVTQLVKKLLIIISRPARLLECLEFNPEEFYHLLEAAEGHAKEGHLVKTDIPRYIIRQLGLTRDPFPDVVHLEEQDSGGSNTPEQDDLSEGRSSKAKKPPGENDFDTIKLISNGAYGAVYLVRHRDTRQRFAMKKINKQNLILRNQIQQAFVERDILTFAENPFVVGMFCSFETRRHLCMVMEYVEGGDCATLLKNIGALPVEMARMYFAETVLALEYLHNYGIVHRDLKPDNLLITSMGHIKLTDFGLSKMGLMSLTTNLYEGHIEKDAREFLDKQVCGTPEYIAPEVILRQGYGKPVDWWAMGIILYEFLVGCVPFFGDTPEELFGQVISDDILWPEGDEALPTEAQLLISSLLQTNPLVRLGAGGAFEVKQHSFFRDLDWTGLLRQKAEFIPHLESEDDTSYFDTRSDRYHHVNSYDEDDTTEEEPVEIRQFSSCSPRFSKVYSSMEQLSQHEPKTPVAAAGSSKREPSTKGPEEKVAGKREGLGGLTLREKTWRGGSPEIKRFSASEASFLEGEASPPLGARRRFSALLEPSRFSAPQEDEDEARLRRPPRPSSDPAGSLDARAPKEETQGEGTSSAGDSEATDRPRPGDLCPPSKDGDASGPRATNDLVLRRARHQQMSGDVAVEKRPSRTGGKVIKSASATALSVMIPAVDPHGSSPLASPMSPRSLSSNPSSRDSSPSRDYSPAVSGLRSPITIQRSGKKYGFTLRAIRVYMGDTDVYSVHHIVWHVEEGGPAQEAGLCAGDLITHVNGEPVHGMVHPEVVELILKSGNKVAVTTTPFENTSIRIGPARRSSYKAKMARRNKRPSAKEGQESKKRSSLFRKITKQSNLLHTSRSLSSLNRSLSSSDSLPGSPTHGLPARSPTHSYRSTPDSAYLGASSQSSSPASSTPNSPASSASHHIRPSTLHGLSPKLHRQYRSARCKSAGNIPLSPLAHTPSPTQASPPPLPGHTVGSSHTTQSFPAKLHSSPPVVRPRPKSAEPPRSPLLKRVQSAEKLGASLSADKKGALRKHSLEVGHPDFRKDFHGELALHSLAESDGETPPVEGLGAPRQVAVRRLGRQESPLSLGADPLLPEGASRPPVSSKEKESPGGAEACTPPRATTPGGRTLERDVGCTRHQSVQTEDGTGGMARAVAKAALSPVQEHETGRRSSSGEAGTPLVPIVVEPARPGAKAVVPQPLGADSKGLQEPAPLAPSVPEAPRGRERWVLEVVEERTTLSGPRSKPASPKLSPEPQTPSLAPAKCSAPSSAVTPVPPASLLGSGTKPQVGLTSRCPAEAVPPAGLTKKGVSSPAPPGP
Chain of DAPK2 (human) (Q9UIK4 whole entry, looked up): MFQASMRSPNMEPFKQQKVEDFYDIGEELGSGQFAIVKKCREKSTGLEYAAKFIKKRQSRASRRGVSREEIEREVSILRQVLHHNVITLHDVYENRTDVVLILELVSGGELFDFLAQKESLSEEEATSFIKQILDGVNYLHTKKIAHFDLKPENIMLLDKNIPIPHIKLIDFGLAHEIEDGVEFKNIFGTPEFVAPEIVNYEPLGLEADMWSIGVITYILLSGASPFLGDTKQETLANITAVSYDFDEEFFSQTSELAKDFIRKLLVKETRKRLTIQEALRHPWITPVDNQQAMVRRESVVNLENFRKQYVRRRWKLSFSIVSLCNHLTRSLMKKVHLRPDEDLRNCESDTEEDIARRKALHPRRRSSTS

| SMILES | kinase still bound, per cent of control [2] [%] | kinase still bound, per cent of control [3] [%] | kinase still bound, per cent of control [5] [%] | kinase still bound, per cent of control [6] [%] | kinase still bound, per cent of control [7] [%] | kinase still bound, per cent of control [8] [%] | kinase still bound, per cent of control [10] [%] | kinase still bound, per cent of control [11] [%] | kinase still bound, per cent of control [12] [%] | kinase still bound, per cent of control [13] [%] | kinase still bound, per cent of control [14] [%] | kinase still bound, per cent of control [15] [%] | kinase still bound, per cent of control [17] [%] | kinase still bound, per cent of control [18] [%] | kinase still bound, per cent of control [19] [%] | kinase still bound, per cent of control [20] [%] | kinase still bound, per cent of control [21] [%] | kinase still bound, per cent of control [22] [%] | kinase still bound, per cent of control [23] [%] | kinase still bound, per cent of control [24] [%] | other results |
| --- | --- | --- | --- | --- | --- | --- | --- | --- | --- | --- | --- | --- | --- | --- | --- | --- | --- | --- | --- | --- | --- |
| C=CC(=O)Nc1ccc(C(=O)c2sc(Nc3ccc(N4CCN(C)CC4)cc3OC)nc2N)cc1 | 93 | 100 | 2.8 | 100 | 96 | 88 | 7.6 | 100 | 32 | 98 | 100 | 4.6 | 0 | 83 | 64 | 100 | 49 | 100 | 100 | 100 | kinase still bound, per cent of control [1]: 73%; kinase still bound, per cent of control [4]: 73%; kinase still bound, per cent of control [9]: 93%; kinase still bound, per cent of control [16]: 2.7%; kinase still bound, per cent of control [25]: 100%; kinase still bound, per cent of control [26]: 99%; kinase still bound, per cent of control [27]: 100%; kinase still bound, per cent of control [28]: 61%; kinase still bound, per cent of control [29]: 85%; kinase still bound, per cent of control [30]: 83%; kinase still bound, per cent of control [31]: 54%; kinase still bound, per cent of control [32]: 100%; kinase still bound, per cent of control [33]: 23%; kinase still bound, per cent of control [34]: 100%; kinase still bound, per cent of control [35]: 20% |
| CC(=O)c1c(C)c2cnc(Nc3ccc(N4CCNCC4)cn3)nc2n(C2CCCC2)c1=O | 83 | 78 | 2.4 | 60 | 94 | 96 | 34 | 13 | 38 | 67 | 76 | 52 | 5 | 100 | 61 | 31 | 1 | 25 | 28 | 52 | kinase still bound, per cent of control [25]: 1%; kinase still bound, per cent of control [26]: 90%; kinase still bound, per cent of control [27]: 78%; kinase still bound, per cent of control [28]: 64%; kinase still bound, per cent of control [29]: 36%; kinase still bound, per cent of control [30]: 90%; kinase still bound, per cent of control [31]: 23%; kinase still bound, per cent of control [33]: 8.1%; kinase still bound, per cent of control [34]: 47%; kinase still bound, per cent of control [35]: 73% |
| N#Cc1cc(-c2ccnc(Nc3ccc(-n4cnc(-c5cccnc5)n4)cc3)n2)cc(N2CCOCC2)c1 | 93 | 45 | 96 | 100 | 79 | 72 | 54 | 70 | 2.6 | 78 | 49 | 10 | 100 | 100 | 57 | 94 | 57 | 100 | 100 | 100 | kinase still bound, per cent of control [1]: 100%; kinase still bound, per cent of control [4]: 60%; kinase still bound, per cent of control [9]: 69%; kinase still bound, per cent of control [16]: 100%; kinase still bound, per cent of control [25]: 6.3%; kinase still bound, per cent of control [26]: 55%; kinase still bound, per cent of control [27]: 57%; kinase still bound, per cent of control [28]: 3.2%; kinase still bound, per cent of control [29]: 100%; kinase still bound, per cent of control [30]: 73%; kinase still bound, per cent of control [31]: 23%; kinase still bound, per cent of control [32]: 56%; kinase still bound, per cent of control [33]: 28%; kinase still bound, per cent of control [34]: 35%; kinase still bound, per cent of control [35]: 70% |
